# According to patent US20020146823A1, “Method for promoting hematopoietic and mesenchymal cell proliferation and differentiation” (The University of Southern California, priority 1997, published 2002):
# Legend:
# [1] = test system: Murine Peritoneal Macrophages; assay: Phagocytic capability of murine peritoneal macrophages (opsonized yeast ingestion); assay type: cell-based, C57B1/6 mice
# Method: Resident peritoneal macrophages have very little phagocytic activity. Exposure of macrophages to inflammatory or activating agents will increase this macrophage function. Resident peritoneal macrophages were harvested from C57B1/6 mice or Sprague Dawley rats and resuspended at a concentration of 1×10^6 cells/ml in phosphate buffered saline (PBS). Five separate 0.5 ml cell aliquots were placed on a glass coverslip in a 35 mm petri dish. Prior to incubation, either 0.5 ml of PBS, AII, or AII analogues or fragments at between 1-1000 ug/ml final concentration was added to the individual cover slips. The dishes containing the cover slips were then incubated at 37° C. for 4 hours, after which the cover slips were washed 3 to 6 times with PBS. Opsonized yeast particles (Sigma Chemical Co.) (yeast opsonized with adult serum from the same species as that under study) were added to the cover slips and incubated for 2 hours, after which the cover slips were again washed with PBS and inverted onto a glass slide. The number of macrophages that ingested yeast and the number of yeast per macrophage ingested was then determined microscopically. At least 100 macrophages per coverslip were counted. The data from this study are summarized in Tables 3 and 4 and FIGS. 1 and 2.
# [2] = test system: rat peritoneal macrophages; assay: Respiratory burst (hydrogen peroxide generation) in rat peritoneal macrophages; assay type: cell-based; details: alone and in response to PMA; 4 hours exposure
# Method: (§1) The respiratory burst of leukocytes (macrophages and polymorphonuclear neutrophils) is one component of the mediator system used to kill bacteria. As with phagocytosis, the level of this respiratory burst activity in resident macrophages is low. […] Studies were conducted to assess the effect of in vitro exposure of murine or rat peritoneal macrophages and human peripheral blood mononuclear cells (PBMC) to various concentrations of AII on the capacity to generate hydrogen peroxide via the respiratory burst system. For the human studies, five different donors were examined.
# (§2) The murine or rat peritoneal cells were harvested by lavage with 5-15 ml of cold PBS with 0.5% bovine serum albumin. The human PBMC were harvested by venipuncture from normal human volunteers and isolated from peripheral blood by Ficoll Hypaque density centrifugation. After isolation, the cells were resuspended at 1×10^6 cells/ml and placed at 100 μl per well into 96 well plates. The cells were incubated with various concentrations of AII or AII analogues and fragments for 4 hours at 37° C. The cells were then preloaded with a fluorescent probe for hydrogen peroxide, 2,7 dichlorofluorescein acetate, which is nonfluorescent in the absence of hydrogen peroxide. […] One hour after stimulation the level of fluorescence produced was measured on a Cytofluor 2350 multiwell fluorometer.
# [3] = test system: murine peritoneal macrophages; assay: Respiratory burst (hydrogen peroxide generation) in murine peritoneal macrophages; assay type: cell-based; details: alone and in response to PMA; 4 hours exposure
# Method: as §1, §2
# [4] = test system: human PBMC; assay: Proliferative response of human lymphocytes (3H-thymidine incorporation); assay type: cell-based; details: absence of mitogen
# Method: Upon stimulation of lymphocytes with mitogen or antigen, these cells undergo blastogenesis and proliferation. In the absence of such stimuli, proliferation is seldom observed. One method to measure cellular proliferation in a short term assay is via measurement of the amount of the nucleotide thymidine that is incorporated into newly synthesized DNA. The effect of All on the proliferation of human PBMC in the presence and absence of pokeweed mitogen (“PWM”) was assessed.
# Human PBMC were collected from normal volunteers and isolated via Ficoll Hypaque (Sigma Chemical, St. Louis) density centrifugation. After isolation of the buffy coat, the cells were washed 3× to remove the Ficoll Hypaque, counted in trypan blue (0.01%) and resuspended at a concentration of 1×10^6 cells/ml in RPMI 1640 containing 10% fetal calf serum and antibiotics. A 100 μl aliquot of cells was added to each well. Thereafter, various concentrations (0.1 to 1000 μg/ml final concentration) of AII in RPMI 1640 containing 10% FCS and antibiotics were added to various wells in triplicate. To the appropriate wells, PWM (20 μg/ml final concentration) was added. These plates were incubated at 37° C. in 5% CO2 for 48 hours. […] These filters were dried, placed in scintillation fluid and the amount of thymidine incorporated was determined by beta counting.
# [5] = test system: rat MSC; assay: Rat mesenchymal stem cell proliferation in bone marrow cultures; assay type: cell-based, Sprague Dawley rats; details: 1 to 100 μg/ml
# Method: These studies were conducted to determine the effect that AII would have on the proliferation of MSC. Bone marrow cells were harvested from the femur and tibia of female Sprague Dawley rats by flushing the bones with Dulbecco's Minimal Essential Medium-High Glucose (“DMEM-HG”) with a syringe and an 18 gauge needle. These cells were cultured in 24 well plates at 5×10^3 cells/mm^2 in DMEM-HG containing selected lots of fetal calf serum (FCS) and antibiotics (complete medium) at 37° C. incubator containing 5% CO2 in air. Twenty-four hours after the initiation of the cultures the medium and nonadherent cells were aspirated and fresh medium was added. To each of these several wells, complete medium with (1 to 100 μg/ml) or without AII was added. The migration of cells from the clones and their proliferation was followed by microscopic examination. Every 4 days the old medium was removed and fresh medium was added to the cultures. These studies were conducted to determine the effect that inclusion of All analogues and fragments in the cell culture of MSC would have on the proliferation of these cells. Bone marrow cells were harvested from the femur and tibia of female Sprague Dawley rats by flushing the bones with Dulbecco's Minimal Essential Medium-High Glucose (“DMEM-HG”) with a syringe and an 18 gauge needle. […]
# [6] = test system: murine bone marrow stem cells; details: cited from earlier work
substance,measurement,setting,value
"Asp-Arg-Val-Tyr-Ile-His-Pro-Phe (DRVYIHPF; printed: Asp-Arg-Val-Tyr-Ile-His-Pro-Phe) [AII, octapeptide present in humans and other species; known pressor agent, commercially available]","# Macrophages with Yeast, Yeast # 0",[1]; AII 10 μg/ml,100
same,"# Macrophages with Yeast, Yeast # 7-9",[1]; AII 10 μg/ml,0
same,"# Macrophages with Yeast, Yeast # 0",[1]; AII 100 μg/ml,100
same,"# Macrophages with Yeast, Yeast # 7-9",[1]; AII 100 μg/ml,0
same,% Ingesting,[1]; AII 100 μg/ml,16.7%
same,"# Macrophages with Yeast, Yeast # 0",[1]; AII 1000 μg/ml,100
same,"# Macrophages with Yeast, Yeast # 7-9",[1]; AII 1000 μg/ml,0
same,% Ingesting,[1]; AII 1000 μg/ml,25.6%
same,phagocytic capability of peritoneal macrophages,[1]; exposure to 10 μg/ml or greater,tremendously increased
same,% phagocytic,[1]; highest concentration,over 25%
same,"yeast observed per macrophage, on average",[1]; highest concentration,~1
same,increase in the number of macrophages able to phagocytose,[1]; highest concentration vs resident population,25 fold
same,ability of leukocytes to generate hydrogen peroxide,[2],increased the ability of leukocytes to generate hydrogen peroxide both alone and in response to stimulation with PMA
same,ability of leukocytes to generate hydrogen peroxide,[3],increased the ability of leukocytes to generate hydrogen peroxide both alone and in response to stimulation with PMA
same,thymidine incorporation,[4],no increase
same,number of MSC,[5]; all time points examined,increase in the number of MSC in a concentration dependent manner
same,number of sites from which MSC were migrating (CFU) and size (number of cells) of colonies formed,[5]; complete medium with serum,significantly increased
same,formation of colonies,[6]; absence of exogenous colony stimulating factors,increases the formation of colonies
same,number and size of colonies formed,[6]; lineage-negative bone marrow cells expressing Sca1,increased the number and size of colonies formed only in the presence of exogenous colony stimulating factors
